# Measured values: the supplement of paper PMC10307832
# How the values were obtained:
# Assay in all cases: relative viability (nuclei count vs DMSO), 5 days (fraction); higher = more cells survive
# CAL-12T = system: CAL-12T
# Method in brief: (§1)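 Five library-drug doses in √10 steps were combined with a fixed anchor-drug dose, or a single drug was given alone, by pin tool to lung cancer cell lines in 1536-well plates the day after seeding. Nuclei were stained and counted after 5 days. Relative viability is the nuclei count in treated wells over that in vehicle wells, taken as the median of duplicate plates.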
# NCI-H1650 = system: NCI-H1650
# Method in brief: as §1
# NCI-H727 = system: NCI-H727
# Method in brief: as §1
# 201T = system: 201T
# Method in brief: as §1
# HCC-827 = system: HCC-827
# Method in brief: as §1
# NCI-H1395 = system: NCI-H1395
# Method in brief: as §1
# LCLC-103H = system: LCLC-103H
# Method in brief: as §1
# NCI-H647 = system: NCI-H647
# Method in brief: as §1
# RERF-LC-KJ = system: RERF-LC-KJ
# Method in brief: as §1
# LXF-289 = system: LXF-289
# Method in brief: as §1
# NCI-H1437 = system: NCI-H1437
# Method in brief: as §1
# NCI-H2228 = system: NCI-H2228
# Method in brief: as §1
# NCI-H2405 = system: NCI-H2405
# Method in brief: as §1
# BEN = system: BEN
# Method in brief: as §1
# LCLC-97TM1 = system: LCLC-97TM1
# Method in brief: as §1
# NCI-H322M = system: NCI-H322M
# Method in brief: as §1
# SK-LU-1 = system: SK-LU-1
# Method in brief: as §1
# NCI-H1793 = system: NCI-H1793
# Method in brief: as §1
# NCI-H1944 = system: NCI-H1944
# Method in brief: as §1
# NCI-H3122 = system: NCI-H3122
# Method in brief: as §1
smiles,measurement,setting,value
CC(=O)O[C@@]12CO[C@@H]1C[C@H](O)[C@@]1(C)C(=O)[C@H](O)C3=C(C)[C@@H](OC(=O)[C@H](O)[C@@H](NC(=O)OC(C)(C)C)c4ccccc4)C[C@@](O)([C@@H](OC(=O)c4ccccc4)[C@H]21)C3(C)C [Docetaxel] + Cc1cc(Nc2cc(N3CCN(C)CC3)nc(Sc3ccc(NC(=O)C4CC4)cc3)n2)n[nH]1 [Tozasertib] (partner 0.1 µM),relative viability,CAL-12T; first compound 0.0002 µM,0.319
same,relative viability,CAL-12T; first compound 0.000632 µM,0.32
same,relative viability,CAL-12T; first compound 0.002 µM,0.227
same,relative viability,CAL-12T; first compound 0.006325 µM,0.251
same,relative viability,CAL-12T; first compound 0.02 µM,0.142
same,relative viability,NCI-H1650; first compound 0.0002 µM,0.386
same,relative viability,NCI-H1650; first compound 0.000632 µM,0.328
same,relative viability,NCI-H1650; first compound 0.006325 µM,0.306
same,relative viability,NCI-H1650; first compound 0.02 µM,0.168
same,relative viability,NCI-H727; first compound 0.0002 µM,0.781
same,relative viability,NCI-H727; first compound 0.000632 µM,0.614
same,relative viability,NCI-H727; first compound 0.002 µM,0.611
same,relative viability,NCI-H727; first compound 0.006325 µM,0.518
same,relative viability,NCI-H727; first compound 0.02 µM,0.398
same,relative viability,201T; first compound 0.0002 µM,0.937
same,relative viability,201T; first compound 0.000632 µM,0.751
same,relative viability,201T; first compound 0.002 µM,0.581
same,relative viability,201T; first compound 0.006325 µM,0.453
same,relative viability,201T; first compound 0.02 µM,0.325
same,relative viability,HCC-827; first compound 0.0002 µM,0.406
same,relative viability,HCC-827; first compound 0.000632 µM,0.412
same,relative viability,HCC-827; first compound 0.002 µM,0.328
same,relative viability,HCC-827; first compound 0.006325 µM,0.332
same,relative viability,HCC-827; first compound 0.02 µM,0.295
same,relative viability,NCI-H1395; first compound 0.0002 µM,0.698
same,relative viability,NCI-H1395; first compound 0.000632 µM,0.753
same,relative viability,NCI-H1395; first compound 0.002 µM,0.59
same,relative viability,NCI-H1395; first compound 0.006325 µM,0.372
same,relative viability,NCI-H1395; first compound 0.02 µM,0.325
same,relative viability,LCLC-103H; first compound 0.0002 µM,0.48
same,relative viability,LCLC-103H; first compound 0.000632 µM,0.39
same,relative viability,LCLC-103H; first compound 0.002 µM,0.358
same,relative viability,LCLC-103H; first compound 0.006325 µM,0.377
same,relative viability,LCLC-103H; first compound 0.02 µM,0.296
same,relative viability,NCI-H647; first compound 0.0002 µM,0.258
same,relative viability,NCI-H647; first compound 0.000632 µM,0.339
same,relative viability,NCI-H647; first compound 0.002 µM,0.148
same,relative viability,NCI-H647; first compound 0.006325 µM,0.132
same,relative viability,NCI-H647; first compound 0.02 µM,0.103
same,relative viability,RERF-LC-KJ; first compound 0.0002 µM,0.525
same,relative viability,RERF-LC-KJ; first compound 0.000632 µM,0.403
same,relative viability,RERF-LC-KJ; first compound 0.002 µM,0.279
same,relative viability,RERF-LC-KJ; first compound 0.006325 µM,0.278
same,relative viability,RERF-LC-KJ; first compound 0.02 µM,0.197
same,relative viability,LXF-289; first compound 0.0002 µM,0.172
same,relative viability,LXF-289; first compound 0.000632 µM,0.165
same,relative viability,LXF-289; first compound 0.006325 µM,0.125
same,relative viability,LXF-289; first compound 0.02 µM,0.114
same,relative viability,NCI-H1437; first compound 0.0002 µM,0.354
same,relative viability,NCI-H1437; first compound 0.000632 µM,0.374
same,relative viability,NCI-H1437; first compound 0.002 µM,0.241
same,relative viability,NCI-H1437; first compound 0.006325 µM,0.273
same,relative viability,NCI-H1437; first compound 0.02 µM,0.201
same,relative viability,NCI-H2228; first compound 0.0002 µM,0.242
same,relative viability,NCI-H2228; first compound 0.000632 µM,0.169
same,relative viability,NCI-H2228; first compound 0.002 µM,0.127
same,relative viability,NCI-H2228; first compound 0.006325 µM,0.168
same,relative viability,NCI-H2228; first compound 0.02 µM,0.121
same,relative viability,NCI-H2405; first compound 0.0002 µM,0.699
same,relative viability,NCI-H2405; first compound 0.000632 µM,0.556
same,relative viability,NCI-H2405; first compound 0.002 µM,0.461
same,relative viability,NCI-H2405; first compound 0.006325 µM,0.361
same,relative viability,NCI-H2405; first compound 0.02 µM,0.278
same,relative viability,BEN; first compound 0.0002 µM,0.499
same,relative viability,BEN; first compound 0.000632 µM,0.503
same,relative viability,BEN; first compound 0.002 µM,0.473
same,relative viability,BEN; first compound 0.006325 µM,0.418
same,relative viability,BEN; first compound 0.02 µM,0.426
same,relative viability,LCLC-97TM1; first compound 0.000632 µM,0.209
same,relative viability,LCLC-97TM1; first compound 0.002 µM,0.191
same,relative viability,LCLC-97TM1; first compound 0.006325 µM,0.122
same,relative viability,LCLC-97TM1; first compound 0.02 µM,0.13
same,relative viability,NCI-H322M; first compound 0.0002 µM,0.479
same,relative viability,NCI-H322M; first compound 0.000632 µM,0.477
same,relative viability,NCI-H322M; first compound 0.002 µM,0.49
same,relative viability,NCI-H322M; first compound 0.006325 µM,0.485
same,relative viability,NCI-H322M; first compound 0.02 µM,0.476
same,relative viability,SK-LU-1; first compound 0.0002 µM,0.297
same,relative viability,SK-LU-1; first compound 0.000632 µM,0.302
same,relative viability,SK-LU-1; first compound 0.002 µM,0.308
same,relative viability,SK-LU-1; first compound 0.006325 µM,0.252
same,relative viability,SK-LU-1; first compound 0.02 µM,0.217
same,relative viability,NCI-H1793; first compound 0.0002 µM,0.372
same,relative viability,NCI-H1793; first compound 0.000632 µM,0.285
same,relative viability,NCI-H1793; first compound 0.002 µM,0.197
same,relative viability,NCI-H1793; first compound 0.006325 µM,0.195
same,relative viability,NCI-H1793; first compound 0.02 µM,0.136
same,relative viability,NCI-H1944; first compound 0.0002 µM,0.23
same,relative viability,NCI-H1944; first compound 0.000632 µM,0.223
same,relative viability,NCI-H1944; first compound 0.002 µM,0.235
same,relative viability,NCI-H1944; first compound 0.006325 µM,0.194
same,relative viability,NCI-H1944; first compound 0.02 µM,0.15
same,relative viability,NCI-H3122; first compound 0.0002 µM,0.339
same,relative viability,NCI-H3122; first compound 0.000632 µM,0.278
same,relative viability,NCI-H3122; first compound 0.002 µM,0.217
same,relative viability,NCI-H3122; first compound 0.006325 µM,0.179
same,relative viability,NCI-H3122; first compound 0.02 µM,0.122
